In patent publication US20230085307A1, “PYRIDAZINONE COMPOUND AND HERBICIDE” (NISSAN CHEMICAL CORPORATION, priority 2019, published 2023):

What was measured:
southern crabgrass [1] = assay: Test Example 5: herbicidal effect by foliage application, plastic box (Table 20, symbol F); format: in vivo, southern crabgrass (Digitaria ciliaris); settings: foliage application, three weeks after application
Method in brief: (§1)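 Post-emergence foliar test in sterilized diluvial soil. Compound applied as water-diluted emulsion at a predetermined rate to 14-day-old plants; evaluation at three weeks.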

redroot pigweed [2] = assay: Test Example 5: herbicidal effect by foliage application, plastic box (Table 20, symbol N); format: in vivo, redroot pigweed (Amaranthus retroflexus); settings: foliage application, three weeks after application
Method in brief: as §1

lambsquarters = assay: Test Example 5: herbicidal effect by foliage application, plastic box (Table 20, symbol O); format: in vivo, lambsquarters (Chenopodium album); settings: foliage application, three weeks after application
Method in brief: as §1

Japanese bulrush [3] = assay: Test Example 2: herbicidal activity, application during weed generation under submerged conditions (Table 17, symbol B); format: in vivo, Japanese bulrush (Schoenoplectus juncoides); settings: application during weed generation, submerged conditions
Method in brief: (§2)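 Alluvial soil in Wagner pots was flooded to 4 cm depth and sown with the three weeds together; pots were kept in a greenhouse at 25° C. to 30° C. At the one to two leaf stage, an emulsion formulation diluted in water to a set rate went onto the water surface; scored three weeks later.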

persian speedwell = assay: Test Example 5: herbicidal effect by foliage application, plastic box (Table 20, symbol R); format: in vivo, Persian speedwell (Veronica persica); settings: foliage application, three weeks after application
Method in brief: as §1

wild oat = assay: Test Example 5: herbicidal effect by foliage application, plastic box (Table 20, symbol I); format: in vivo, wild oat (Avena fatua); settings: foliage application, three weeks after application
Method in brief: as §1

oval-leafed pondweed = assay: Test Example 1: herbicidal activity, application before weed generation under submerged conditions (Table 16, symbol C); format: in vivo, oval-leafed pondweed (Monochoria vaginalis)
Method in brief: (§3)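 Submerged Wagner pots (alluvial soil, 4 cm water) sown with weed seeds and planted with 2.5-leaf rice seedlings; emulsifiable concentrate diluted in water applied to water surface on sowing day. Held in greenhouse at 25-30 °C; injury scored 0-5 by herbicidal rate after three weeks.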

southern crabgrass [4] = assay: Test Example 4: herbicidal effect by soil treatment (Table 19, symbol F); format: in vivo, southern crabgrass (Digitaria ciliaris)
Method in brief: (§4)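 Scoring uses the grading scale of an earlier test, three weeks post-application. Treatment consists of spraying a diluted emulsion formulation across the surface of sterilized diluvial soil in which seeds are buried near 1.5 cm deep; boxes are kept in a greenhouse between 25° C. and 30° C.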

blackgrass [5] = assay: Test Example 4: herbicidal effect by soil treatment (Table 19, symbol J); format: in vivo, blackgrass (Alopecurus myosuroides)
Method in brief: as §4

green foxtail = assay: Test Example 5: herbicidal effect by foliage application, plastic box (Table 20, symbol G); format: in vivo, green foxtail (Setaria viridis); settings: foliage application, three weeks after application
Method in brief: as §1

redroot pigweed [6] = assay: Test Example 4: herbicidal effect by soil treatment (Table 19, symbol N); format: in vivo, redroot pigweed (Amaranthus retroflexus)
Method in brief: as §4

blackgrass [7] = assay: Test Example 5: herbicidal effect by foliage application, plastic box (Table 20, symbol J); format: in vivo, blackgrass (Alopecurus myosuroides); settings: foliage application, three weeks after application
Method in brief: as §1

late watergrass = assay: Test Example 2: herbicidal activity, application during weed generation under submerged conditions (Table 17, symbol A); format: in vivo, late watergrass (Echinochloa oryzicola); settings: application during weed generation, submerged conditions
Method in brief: as §2

barnyard grass [8] = assay: Test Example 4: herbicidal effect by soil treatment (Table 19, symbol H); format: in vivo, barnyard grass (Echinochloa crus-galli)
Method in brief: as §4

Japanese bulrush [9] = assay: Test Example 1: herbicidal activity, application before weed generation under submerged conditions (Table 16, symbol B); format: in vivo, Japanese bulrush (Schoenoplectus juncoides)
Method in brief: as §3

chickweed = assay: Test Example 4: herbicidal effect by soil treatment (Table 19, symbol P); format: in vivo, common chickweed (Stellaria media)
Method in brief: as §4

barnyard grass [10] = assay: Test Example 3: herbicidal effect by foliage application, Wagner pot (Table 18, symbol H); format: in vivo, barnyard grass (Echinochloa crus-galli)
Method in brief: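 Plants were sown in alluvial soil held under 0.1–0.5 cm standing water and grown 14 days in a greenhouse at 25–30 °C. An emulsifiable formulation, water-diluted to the set dose, was then sprayed onto the foliage, and effects were scored three weeks later using previously defined criteria.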

[11] = amount of applied herbicide 320 g/ha
[12] = amount of applied herbicide 310 g/ha

SMILES	F: southern crabgrass, herbicidal effect grade (southern crabgrass [1]; 320 g/ha)	N: redroot pigweed, herbicidal effect grade (redroot pigweed [2]; 320 g/ha)	O: lambsquarters, herbicidal effect grade (lambsquarters; 320 g/ha)	herbicidal effect rating, B: Japanese bulrush (Japanese bulrush [3]; AAH 320 g/ha)	R: persian speedwell, herbicidal effect grade (persian speedwell; 320 g/ha)	I: wild oat, herbicidal effect grade (wild oat; 320 g/ha)	Herbicidal effect, C: oval-leafed pondweed (oval-leafed pondweed; [11])	F: southern crabgrass, herbicidal effect grade (southern crabgrass [4]; [11])	J: blackgrass, herbicidal effect grade (blackgrass [5]; [11])	G: green foxtail, herbicidal effect grade (green foxtail; 320 g/ha)	N: redroot pigweed, herbicidal effect grade (redroot pigweed [6]; [11])	J: blackgrass, herbicidal effect grade (blackgrass [7]; 320 g/ha)	herbicidal effect rating, A: late watergrass (late watergrass; AAH 320 g/ha)	H: barnyard grass, herbicidal effect grade (barnyard grass [8]; [11])	Herbicidal effect, B: Japanese bulrush (Japanese bulrush [9]; [11])	P: chickweed, herbicidal effect grade (chickweed; [11])	herbicidal effect on barnyard grass (H) (barnyard grass [10]; 320 g/ha)	further results
CCCC(=O)Oc1c(C)nn(C)c(=O)c1-c1c(-c2ccc(F)cc2OCC)sc2cc(C)ccc12 [3-058]	5 (Herbicidal rate of 90% or more (almost completely withered))	4 (Herbicidal rate of 70% or more and less than 90%)	5 (Herbicidal rate of 90% or more (almost completely withered))	5 (Herbicidal rate of 90% or more (almost completely withered))	5 (Herbicidal rate of 90% or more (almost completely withered))	5 (Herbicidal rate of 90% or more (almost completely withered))	3 (Herbicidal rate of 40% or more and less than 70%)	5 (Herbicidal rate of 90% or more (almost completely withered))	3 (Herbicidal rate of 40% or more and less than 70%)	5 (Herbicidal rate of 90% or more (almost completely withered))	5 (Herbicidal rate of 90% or more (almost completely withered))	5 (Herbicidal rate of 90% or more (almost completely withered))	4 (Herbicidal rate of 70% or more and less than 90%)	0 (Herbicidal rate of 5% or less (almost no effect))	5 (Herbicidal rate of 90% or more (almost completely withered))	4 (Herbicidal rate of 70% or more and less than 90%)	5 (Herbicidal rate of 90% or more (almost completely withered))	
CCCC(=O)Oc1c(C)nn(C)c(=O)c1-c1c(-c2ccccc2OC)sc2cc(OCC)ccc12 [3-090]																		F: southern crabgrass, herbicidal effect grade (southern crabgrass [1]; 310 g/ha): 3 (Herbicidal rate of 40% or more and less than 70%); N: redroot pigweed, herbicidal effect grade (redroot pigweed [2]; 310 g/ha): 5 (Herbicidal rate of 90% or more (almost completely withered)); O: lambsquarters, herbicidal effect grade (lambsquarters; 310 g/ha): 5 (Herbicidal rate of 90% or more (almost completely withered)); herbicidal effect rating, B: Japanese bulrush (Japanese bulrush [3]; AAH 310 g/ha): 4 (Herbicidal rate of 70% or more and less than 90%); R: persian speedwell, herbicidal effect grade (persian speedwell; 310 g/ha): 5 (Herbicidal rate of 90% or more (almost completely withered)); I: wild oat, herbicidal effect grade (wild oat; 310 g/ha): 4 (Herbicidal rate of 70% or more and less than 90%); Herbicidal effect, C: oval-leafed pondweed (oval-leafed pondweed; [12]): 4 (Herbicidal rate of 70% or more and less than 90%); F: southern crabgrass, herbicidal effect grade (southern crabgrass [4]; [12]): 3 (Herbicidal rate of 40% or more and less than 70%); J: blackgrass, herbicidal effect grade (blackgrass [5]; [12]): 4 (Herbicidal rate of 70% or more and less than 90%); G: green foxtail, herbicidal effect grade (green foxtail; 310 g/ha): 4 (Herbicidal rate of 70% or more and less than 90%); N: redroot pigweed, herbicidal effect grade (redroot pigweed [6]; [12]): 4 (Herbicidal rate of 70% or more and less than 90%); J: blackgrass, herbicidal effect grade (blackgrass [7]; 310 g/ha): 4 (Herbicidal rate of 70% or more and less than 90%); herbicidal effect rating, A: late watergrass (late watergrass; AAH 310 g/ha): 4 (Herbicidal rate of 70% or more and less than 90%); H: barnyard grass, herbicidal effect grade (barnyard grass [8]; [12]): 2 (Herbicidal rate of 20% or more and less than 40%); Herbicidal effect, B: Japanese bulrush (Japanese bulrush [9]; [12]): 5 (Herbicidal rate of 90% or more (almost completely withered)); P: chickweed, herbicidal effect grade (chickweed; [12]): 4 (Herbicidal rate of 70% or more and less than 90%); herbicidal effect on barnyard grass (H) (barnyard grass [10]; 310 g/ha): 5 (Herbicidal rate of 90% or more (almost completely withered))
CCOc1ccc2c(-c3c(O)c(C)nn(C)c3=O)c(-c3ccc(F)cc3OCC)sc2c1 [3-095]	5 (Herbicidal rate of 90% or more (almost completely withered))	5 (Herbicidal rate of 90% or more (almost completely withered))	5 (Herbicidal rate of 90% or more (almost completely withered))	5 (Herbicidal rate of 90% or more (almost completely withered))	5 (Herbicidal rate of 90% or more (almost completely withered))	5 (Herbicidal rate of 90% or more (almost completely withered))	5 (Herbicidal rate of 90% or more (almost completely withered))	4 (Herbicidal rate of 70% or more and less than 90%)	4 (Herbicidal rate of 70% or more and less than 90%)	3 (Herbicidal rate of 40% or more and less than 70%)	5 (Herbicidal rate of 90% or more (almost completely withered))	4 (Herbicidal rate of 70% or more and less than 90%)	4 (Herbicidal rate of 70% or more and less than 90%)	5 (Herbicidal rate of 90% or more (almost completely withered))	5 (Herbicidal rate of 90% or more (almost completely withered))	4 (Herbicidal rate of 70% or more and less than 90%)	5 (Herbicidal rate of 90% or more (almost completely withered))	
Cc1nn(C)c(=O)c(-c2c(-c3ccc4c(c3)OCCO4)sc3cc(F)ccc23)c1O [3-013]	4 (Herbicidal rate of 70% or more and less than 90%)	5 (Herbicidal rate of 90% or more (almost completely withered))	5 (Herbicidal rate of 90% or more (almost completely withered))	0 (Herbicidal rate of 5% or less (almost no effect))	5 (Herbicidal rate of 90% or more (almost completely withered))	0 (Herbicidal rate of 5% or less (almost no effect))	2 (Herbicidal rate of 20% or more and less than 40%)			4 (Herbicidal rate of 70% or more and less than 90%)		0 (Herbicidal rate of 5% or less (almost no effect))	0 (Herbicidal rate of 5% or less (almost no effect))		3 (Herbicidal rate of 40% or more and less than 70%)			herbicidal effect, F: southern crabgrass (southern crabgrass [4]; [11]): 4 (Herbicidal rate of 70% or more and less than 90%); herbicidal effect, J: blackgrass (blackgrass [5]; [11]): 0 (Herbicidal rate of 5% or less (almost no effect)); herbicidal effect, N: redroot pigweed (redroot pigweed [6]; [11]): 4 (Herbicidal rate of 70% or more and less than 90%); herbicidal effect, H: barnyard grass (barnyard grass [8]; [11]): 5 (Herbicidal rate of 90% or more (almost completely withered)); herbicidal effect, P: chickweed (chickweed; [11]): 4 (Herbicidal rate of 70% or more and less than 90%); herbicidal effect on H: barnyard grass (barnyard grass [10]; [11]): 4 (Herbicidal rate of 70% or more and less than 90%)
